For one compound, Activity results are on record in ChEMBL document CHEMBL4393652, “Development of Isoselenocyanate Compounds' Syntheses and Biological Applications” (2019).

This experiment relates to UACC-903. The experiment can be described thus: Antitumor activity against human UACC-903 cells xenografted in Nude-Foxn1nu mouse assessed as reduction in tumor size after 24 hrs relative to control. Format: functional. Set-up: scale not given: the % may be the effect or the level left.

Regarding `[Se]=C=NCCCCc1ccccc1` [PHENYLBUTYL ISOSELENOCYANATE], the Activity is listed as 77%.
